Patent US7595404B2, “Thiazolyl-substituted carbocyclic 1,3-diones as pesticidal agents” (Bayer CropScience AG, priority 2001, dated 2009)

Tests used:
[1] = test system: larvae of the mustard beetle (Phaedon cochleariae); test: Phaedon larvae test; format: in vivo; conditions: 500 ppm, dipped cabbage leaves
Procedure: (§1) Phaedon Larvae Test • Solvent: 7 parts by weight of dimethylformamide • Emulsifier: 2 parts by weight of alkylaryl polyglycol ether To produce a suitable preparation of active compound, 1 part by weight of active compound is mixed with the stated amounts of solvent and emulsifier, and the concentrate is diluted with emulsifier-containing water to the desired concentration. Cabbage leaves (Brassica oleracea) are treated by being dipped into the preparation of active compound of the desired concentration and are populated with larvae of the mustard beetle (Phaedon cochleariae) while the leaves are still moist. After the desired period of time, the kill in % is determined. 100% means that all beetle larvae have been killed; 0% means that none of the beetle larvae have been killed.

[2] = test system: caterpillars of the armyworm (Spodoptera frugiperda); test: Spodoptera frugiperda test; format: in vivo; conditions: 500 ppm, dipped cabbage leaves
Procedure: as §1, with “Spodoptera Frugiperda Test” for “Phaedon Larvae Test”, “with caterpillars” for “with larvae”, “the armyworm (Spodoptera frugiperda)” for “the mustard beetle (Phaedon cochleariae)”, “all caterpillar” for “all beetle”, “the caterpillar” for “the beetle larvae”

[3] = test system: greenhouse red spider mite (Tetranychus urticae); test: Tetranychus test (OP-resistant/dip treatment); format: in vivo; conditions: 100 ppm, dipped bean plants
Procedure: Tetranychus test (OP-Resistant/Dip Treatment)
• Solvent: 30 parts by weight of dimethylformamide • Emulsifier: 1 part by weight of alkylaryl polyglycol ether
To produce a suitable preparation of active compound, 1 part by weight of active compound is mixed with the stated amounts of solvent and emulsifier, and the concentrate is diluted with emulsifier-containing water to the desired concentration.
Bean plants (Phaseolus vulgaris) which are heavily infested by all stages of the greenhouse red spider mite (Tetranychus urticae) are dipped into a preparation of active compound of the desired concentration.
After the desired period of time, the effect in % is determined. 100% means that all spider mites have been killed; 0% means that none of the spider mites have been killed.

Avena fatua [4] = test: Post-emergence test, Avena fatua; format: in vivo; conditions: post-emergence/greenhouse; 250 g a.i./ha; after three weeks
Procedure: (§2) • Solvent: 5 parts by weight of acetone • Emulsifier: 1 part by weight of alkylaryl polyglycol ether
(§3) To produce a suitable preparation of active compound, 1 part by weight of active compound is mixed with the stated amount of solvent, the stated amount of emulsifier is added and the concentrate is diluted with water to the desired concentration.
(§4) Test plants of a height of 5-15 cm are sprayed with the preparation of active compound such that the particular amounts of active compound desired are applied per unit area. The concentration of the spray liquor is chosen such that the particular amounts of active compound desired are applied in 1000 l of water/ha.
(§5) After three weeks, the degree of damage to the plants is rated in % damage in comparison to the development of the untreated control.
(§6) The figures denote: • 0% =no effect (like untreated control) • 100% =total destruction

Setaria [5] = test: Post-emergence test, Setaria; format: in vivo; conditions: post-emergence/greenhouse; 250 g a.i./ha; after three weeks
Procedure: as §2, §3, §4, §5, §6

Sinapis = test: Post-emergence test, Sinapis; format: in vivo; conditions: post-emergence/greenhouse; 250 g a.i./ha; after three weeks
Procedure: as §2, §3, §4, §5, §6

Sugar-beet = test: Post-emergence test, Sugar beet; format: in vivo; conditions: post-emergence/greenhouse; 250 g a.i./ha; after three weeks; crop
Procedure: as §2, §3, §4, §5, §6

Echinochloa = test: Post-emergence test, Echinochloa; format: in vivo; conditions: post-emergence/greenhouse; 250 g a.i./ha; after three weeks
Procedure: as §2, §3, §4, §5, §6

[6] = test system: green peach aphid (Myzus persicae); test: Myzus test (systemic action); format: in vivo; conditions: 20 ppm, watering of infested Savoy cabbage (systemic)
Procedure: Myzus Test (Systemic Action) • Solvent: 7 parts by weight of dimethylformamide • Emulsifier: 2 parts by weight of alkylaryl polyglycol ether To produce a suitable preparation of active compound, 1 part by weight of active compound is mixed with the stated amounts of solvent and emulsifier, and the concentrate is diluted with emulsifier-containing water to the desired concentration. Savoy cabbage (Brassica oleracea) which is heavily infested by the green peach aphid (Myzus persicae) is watered with in each case 10 ml of preparation of active compound of the desired concentration such that the preparation of active compound penetrates into the soil without wetting the seedling. The active compound is taken up by the roots and transferred into the seedling. After the desired period of time, the kill in % is determined. 100% means that all aphids have been killed; 0% means that none of the aphids have been killed.

Digitaria = test: Pre-emergence test, Digitaria; format: in vivo; conditions: pre-emergence/greenhouse; 125 g a.i./ha; after three weeks
Procedure: as §2, §3
(§7) Seeds of the test plants are sown in normal soil. After about 24 hours, the soil is sprayed with the preparation of active compound such that the particular amounts of active compound desired are applied per unit area. The concentration of the spray liquor is chosen such that the particular amounts of active compound desired are applied in 1000 l of water/ha.
as §5, §6

Lolium = test: Pre-emergence test, Lolium; format: in vivo; conditions: pre-emergence/greenhouse; 125 g a.i./ha; after three weeks
Procedure: as §2, §3, §7, §5, §6

Alopecurus [7] = test: Pre-emergence test, Alopecurus; format: in vivo; conditions: pre-emergence/greenhouse; 125 g a.i./ha; after three weeks
Procedure: as §2, §3, §7, §5, §6

Oilseed rape = test: Pre-emergence test, Oilseed rape; format: in vivo; conditions: pre-emergence/greenhouse; 125 g a.i./ha; after three weeks; crop
Procedure: as §2, §3, §7, §5, §6

Stellaria = test: Pre-emergence test, Stellaria; format: in vivo; conditions: pre-emergence/greenhouse; 125 g a.i./ha; after three weeks
Procedure: as §2, §3, §7, §5, §6

Alopecurus [8] = test: Post-emergence test, Alopecurus; format: in vivo; conditions: post-emergence/greenhouse; 250 g a.i./ha; after three weeks
Procedure: as §2, §3, §4, §5, §6

Galium = test: Post-emergence test, Galium; format: in vivo; conditions: post-emergence/greenhouse; 250 g a.i./ha; after three weeks
Procedure: as §2, §3, §4, §5, §6

Meloidogyne incognita = test: Meloidogyne test; format: in vivo; conditions: 20 ppm active compound, nematicidal action by gall formation on lettuce roots
Procedure: Meloidogyne Test • Solvent: 30 parts by weight of dimethylformamide • Emulsifier: 1 part by weight of alkylaryl polyglycol ether To produce a suitable preparation of active compound, 1 part by weight of active compound is mixed with the stated amounts of solvent and emulsifier, and the concentrate is diluted with water to the desired concentration. Containers are filled with sand, solution of active compound, Meloidogyne incognita egg/larvae suspension and lettuce seeds. The lettuce seeds germinate the plants develop. On the roots, galls are formed. After the desired period of time, the nematicidal action is determined in % by the gall formation. 100% means that no galls have been found; 0% means that the number of galls on the treated plants corresponds to that of the untreated control.

Wheat = test: Pre-emergence test, Wheat; format: in vivo; conditions: pre-emergence/greenhouse; 125 g a.i./ha; after three weeks; crop
Procedure: as §2, §3, §7, §5, §6

Soya bean = test: Pre-emergence test, Soya bean; format: in vivo; conditions: pre-emergence/greenhouse; 125 g a.i./ha; after three weeks; crop
Procedure: as §2, §3, §7, §5, §6

Setaria [9] = test: Pre-emergence test, Setaria; format: in vivo; conditions: pre-emergence/greenhouse; 125 g a.i./ha; after three weeks
Procedure: as §2, §3, §7, §5, §6

Bromus = test: Pre-emergence test, Bromus; format: in vivo; conditions: pre-emergence/greenhouse; 125 g a.i./ha; after three weeks
Procedure: as §2, §3, §7, §5, §6

Abutilon = test: Pre-emergence test, Abutilon; format: in vivo; conditions: pre-emergence/greenhouse; 125 g a.i./ha; after three weeks
Procedure: as §2, §3, §7, §5, §6

Pyricularia oryzae = format: cell-based; conditions: 50% inhibition of fungal growth, tested at 0.1, 1, 10 and 100 ppm, 22° C., 3-5 days, photometric 620 nm
Septoria tritici = test: In vitro test for the ED50 determination in microorganisms, Septoria tritici; format: cell-based; conditions: 50% inhibition of fungal growth, tested at 0.1, 1, 10 and 100 ppm, 22° C., 3-5 days, photometric 620 nm
Ustilago avenae = test: In vitro test for the ED50 determination in microorganisms, Ustilago avenae; format: cell-based; conditions: 50% inhibition of fungal growth, tested at 0.1, 1, 10 and 100 ppm, 22° C., 3-5 days, photometric 620 nm
Matricaria = test: Pre-emergence test, Matricaria; format: in vivo; conditions: pre-emergence/greenhouse; 125 g a.i./ha; after three weeks
Procedure: as §2, §3, §7, §5, §6

Sugar beet = test: Pre-emergence test, Sugar beet; format: in vivo; conditions: pre-emergence/greenhouse; 125 g a.i./ha; after three weeks; crop
Procedure: as §2, §3, §7, §5, §6

Avena fatua [10] = test: Pre-emergence test, Avena fatua; format: in vivo; conditions: pre-emergence/greenhouse; 125 g a.i./ha; after three weeks
Procedure: as §2, §3, §7, §5, §6

Polygonum = test: Pre-emergence test, Polygonum; format: in vivo; conditions: pre-emergence/greenhouse; 125 g a.i./ha; after three weeks
Procedure: as §2, §3, §7, §5, §6

SMILES | Kill rate in % after 7 d [2] [%] | Kill rate in % after 7 d [3] [%] | % damage, Avena fatua (Avena fatua [4]) [%] | % damage, Setaria (Setaria [5]) [%] | % damage, Sinapis (Sinapis) [%] | % damage, Lolium (Lolium) [%] | % damage, Alopecurus (Alopecurus [7]) [%] | % damage, Stellaria (Stellaria) [%] | % damage, Alopecurus (Alopecurus [8]) [%] | % damage, Soya bean (Soya bean) [%] | % damage, Setaria (Setaria [9]) [%] | further results
CCOC(=O)OC1=C(c2nc(-c3ccc(Cl)cc3)sc2C)C(=O)CC1(C)C [Example I-1-c-1] | 100 | 95 | 90 | 100 | 70 | – | – | – | – | – | – | Kill rate in % after 7 d [1]: 100%; % damage, Sugar-beet (Sugar-beet): 0%; % damage, Echinochloa (Echinochloa): 100%
CCOC(=O)OC1=C(c2nc(-c3ccc(Cl)cc3)sc2C)C(=O)CC12CCCCC2 [Example I-1-c-2] | – | – | – | – | – | 100 | 95 | 100 | – | – | – | Kill rate in % after 10 d [6]: 95%; % damage, Digitaria (Digitaria): 100%; % damage, Oilseed rape (Oilseed rape): 0%
CCOC(=O)OC1=C(c2nc(-c3ccc(Cl)cc3)sc2C)C(=O)CC(C)(C)C1 [Example I-2-c-1] | 100 | 100 | 100 | 100 | – | – | – | – | 90 | – | – | Kill rate in % after 7 d [1]: 100%; % damage, Galium (Galium): 80%
CCOC(=O)OC1=C(c2nc(-c3ccc(Cl)cc3)sc2CC)C(=O)CC12CCCCC2 [Example I-1-c-3] | – | 98 | 100 | 100 | 80 | 100 | 95 | 70 | 100 | 0 | 100 | Kill rate in % after 14 d (Meloidogyne incognita): 100%; % damage, Wheat (Wheat): 10%
Cc1sc(-c2ccc(Cl)cc2)nc1C1=C(O)CC(C)(C)CC1=O [Example I-2-a-1] | 100 | 98 | 95 | 100 | – | 100 | – | – | 90 | 0 | 100 | % damage, Sugar-beet (Sugar-beet): 0%; % damage, Echinochloa (Echinochloa): 100%; % damage, Bromus (Bromus): 95%; % damage, Abutilon (Abutilon): 70%
Cc1sc(-c2ccc(Cl)cc2)nc1C1=C(O)C(C)(C)CCC1=O [Example I-2-a-3] | – | – | – | – | – | – | – | – | – | – | – | ED50 value (Pyricularia oryzae): <0.1 ppm; ED50 value (Septoria tritici): <0.1 ppm; ED50 value (Ustilago avenae): 0.1 ppm
Cc1sc(-c2ccc(Cl)cc2)nc1C1=C(O)C(C)(C)CC1=O [Example I-1-a-1] | – | 100 | 100 | 100 | 70 | 100 | – | 100 | 100 | 0 | 100 | Kill rate in % after 14 d (Meloidogyne incognita): 95%; % damage, Matricaria (Matricaria): 100%
CCc1sc(-c2ccc(Cl)cc2)nc1C1=C(O)C2(CCCCC2)CC1=O [Example I-1-a-3] | – | – | 100 | 100 | 80 | – | 95 | – | 90 | – | – | % damage, Digitaria (Digitaria): 100%; % damage, Sugar beet (Sugar beet): 0%; % damage, Avena fatua (Avena fatua [10]): 100%; % damage, Polygonum (Polygonum): 100%
Cc1sc(-c2ccc(Cl)cc2)nc1C1=C(O)CCCC1=O [Example I-2-a-2] | – | 99 | – | – | – | – | – | – | – | – | – | ED50 value (Pyricularia oryzae): 1.96 ppm; ED50 value (Septoria tritici): <0.1 ppm; ED50 value (Ustilago avenae): <0.1 ppm
